Assay results reported in PubChem BioAssay AID328 (DTP/NCI, 2004).
Several values for one entry are separate records, joined by “and”; a condition that tells them apart may be missing. Equal entries are not always repeated. Toxic doses and inconclusive results are not listed.

Test system: BDF1 mice, P388 leukemia ip, median survival T/C
Assay: NCI In Vivo Anticancer Drug Screen. Data for tumor model P388 Leukemia (intraperitoneal) in B6D2F1 (BDF1) mice
Details: endpoint: median survival time, higher = longer survival
How it was run: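 T/C = treated-group survival ÷ vehicle-control survival; tumour transplanted into mice before dosing.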

[1] = dose: 12.5 mg/kg/injection, schedule: Q01DX009 (ip), vehicle: saline
[2] = dose: 25.0 mg/kg/injection, schedule: Q01DX009 (ip), vehicle: saline
[3] = dose: 50.0 mg/kg/injection, schedule: Q01DX009 (ip), vehicle: saline
[4] = dose: 12.5 mg/kg/injection, schedule: Q01DX009 (ip), vehicle: saline with Tween-80
[5] = dose: 25.0 mg/kg/injection, schedule: Q01DX009 (ip), vehicle: saline with Tween-80
[6] = dose: 25.0 mg/kg/injection, schedule: Q04DX003 (ip), vehicle: saline
[7] = dose: 50.0 mg/kg/injection, schedule: Q04DX003 (ip), vehicle: saline
[8] = dose: 100.0 mg/kg/injection, schedule: Q04DX003 (ip), vehicle: saline
[9] = dose: 50.0 mg/kg/injection, schedule: Q01DX009 (ip), vehicle: saline with Tween-80
[10] = dose: 100.0 mg/kg/injection, schedule: Q01DX001 (ip), vehicle: Klucel (hydroxypropylcellulose) (HPC)
[11] = dose: 200.0 mg/kg/injection, schedule: Q01DX001 (ip), vehicle: Klucel (hydroxypropylcellulose) (HPC)
[12] = dose: 400.0 mg/kg/injection, schedule: Q01DX001 (ip), vehicle: Klucel (hydroxypropylcellulose) (HPC)
[13] = dose: 100.0 mg/kg/injection, schedule: Q01DX009 (ip), vehicle: saline
[14] = dose: 200.0 mg/kg/injection, schedule: Q01DX009 (ip), vehicle: saline
[15] = dose: 400.0 mg/kg/injection, schedule: Q01DX009 (ip), vehicle: saline

**Q.** What does the source list for `COC(C(=O)C(O)C(C)O)C1Cc2cc3cc(OC4CC(OC5CC(O)C(O)C(C)O5)C(O)C(C)O4)c(C)c(O)c3c(O)c2C(=O)C1OC1CC(OC2CC(O)C(OC3CC(C)(O)C(O)C(C)O3)C(C)O2)C(O)C(C)O1` (centres undefined)?
**A.** T/C (dose: 0.03 mg/kg/injection, schedule: Q01DX009 (ip), vehicle: saline): 101 % of control; T/C (dose: 0.06 mg/kg/injection, schedule: Q01DX009 (ip), vehicle: saline): 106 % of control; T/C (dose: 0.13 mg/kg/injection, schedule: Q04DX003 (ip), vehicle: saline): 98 % of control; T/C (dose: 0.25 mg/kg/injection, schedule: Q01DX009 (ip), vehicle: saline): 150 % of control; T/C (dose: 0.25 mg/kg/injection, schedule: Q04DX003 (ip), vehicle: saline): 107 % of control; T/C (dose: 0.5 mg/kg/injection, schedule: Q01DX009 (ip), vehicle: saline): 170 % of control; T/C (dose: 0.5 mg/kg/injection, schedule: Q04DX003 (ip), vehicle: saline): 101 % of control; T/C (dose: 1.0 mg/kg/injection, schedule: Q01DX009 (ip), vehicle: saline): 120 % of control

**Q.** Which T/C (dose: 40.0 mg/kg/injection, schedule: Q01DX009 (sc), vehicle: saline with Tween-80) does the source give for `C#CC1(O)CCC2C3CCc4cc(OC)ccc4C3CCC21C` (centres undefined) here?
**A.** 100 % of control

**Q.** What about the T/C (dose: 80.0 mg/kg/injection, schedule: Q01DX009 (sc), vehicle: saline with Tween-80) of the same molecule?
**A.** 100 % of control

**Q.** What about the T/C (dose: 100.0 mg/kg/injection, schedule: Q04DX003 (sc), vehicle: saline with Tween-80) of the same molecule?
**A.** 88 % of control

**Q.** What about the T/C (dose: 160.0 mg/kg/injection, schedule: Q01DX009 (sc), vehicle: saline with Tween-80) of the same molecule?
**A.** 100 % of control

**Q.** And the T/C (dose: 200.0 mg/kg/injection, schedule: Q04DX003 (sc), vehicle: saline with Tween-80)?
**A.** 94 % of control

**Q.** And the T/C (dose: 400.0 mg/kg/injection, schedule: Q04DX003 (sc), vehicle: saline with Tween-80)?
**A.** 88 % of control

**Q.** Which T/C [1] does the source give for `CC([OH2+])CNCCN.CC([OH2+])CNCCN.[Cu+2].[O-][Cl+3]([O-])([O-])[O-]` (centres undefined) here?
**A.** 108 % of control

**Q.** What about the T/C [2] of the same molecule?
**A.** 115 % of control

**Q.** What about the T/C [3] of the same molecule?
**A.** 114 % of control

**Q.** With `C1CCN(CC2CCCCN2)CC1` (centres undefined) as the molecule, how does the T/C (dose: 25.0 mg/kg/injection, schedule: Q01DX009 (ip), vehicle: Klucel (hydroxypropylcellulose) (HPC)) read?
**A.** 100 % of control

**Q.** And the T/C (dose: 25.0 mg/kg/injection, schedule: Q04DX003 (ip), vehicle: Klucel (hydroxypropylcellulose) (HPC))?
**A.** 105 % of control

**Q.** What about the T/C (dose: 50.0 mg/kg/injection, schedule: Q01DX009 (ip), vehicle: Klucel (hydroxypropylcellulose) (HPC)) of the same molecule?
**A.** 100 % of control

**Q.** And the T/C (dose: 50.0 mg/kg/injection, schedule: Q04DX003 (ip), vehicle: Klucel (hydroxypropylcellulose) (HPC))?
**A.** 100 % of control

**Q.** And the T/C (dose: 100.0 mg/kg/injection, schedule: Q01DX009 (ip), vehicle: Klucel (hydroxypropylcellulose) (HPC))?
**A.** 90 % of control

**Q.** What about the T/C (dose: 100.0 mg/kg/injection, schedule: Q04DX003 (ip), vehicle: Klucel (hydroxypropylcellulose) (HPC)) of the same molecule?
**A.** 110 % of control

**Q.** Which results are given for `C[N-]c1nnnn1C.[Au+].c1ccc([PH+](c2ccccc2)c2ccccc2)cc1`?
**A.** T/C (dose: 6.25 mg/kg/injection, schedule: Q01DX009 (ip), vehicle: saline with Tween-80): 108 % of control; T/C [4]: 108 % of control; T/C [5]: 108 % of control

**Q.** `CCCCN(CCCC)CCCC#N` was tested. Which T/C [2] did it give?
**A.** 116 % of control

**Q.** And the T/C [6]?
**A.** 100 % of control

**Q.** What about the T/C [3] of the same molecule?
**A.** 116 % of control

**Q.** And the T/C [7]?
**A.** 96 % of control

**Q.** And the T/C (dose: 66.0 mg/kg/injection, schedule: Q01DX009 (ip), vehicle: saline with Tween-80)?
**A.** 120 % of control

**Q.** And the T/C [8]?
**A.** 103 % of control

**Q.** What does the source list for `CCN(C(=O)Nc1cccc2ccccc12)c1ccccc1`?
**A.** T/C (dose: 50.0 mg/kg/injection, schedule: Q01DX001 (ip), vehicle: other): 95 % of control; T/C (dose: 100.0 mg/kg/injection, schedule: Q01DX001 (ip), vehicle: other): 95 % of control; T/C (dose: 200.0 mg/kg/injection, schedule: Q01DX001 (ip), vehicle: other): 100 % of control

**Q.** How did the T/C (dose: 3.13 mg/kg/injection, schedule: Q01DX009 (ip), vehicle: Klucel (hydroxypropylcellulose) (HPC)) turn out when `CCCCOc1ccc(OCCCCCCCCCC[N+](C)(C)C)cc1` was run?
**A.** 112 % of control

**Q.** And the T/C (dose: 6.25 mg/kg/injection, schedule: Q01DX009 (ip), vehicle: Klucel (hydroxypropylcellulose) (HPC))?
**A.** 106 % of control

**Q.** What about the T/C (dose: 12.5 mg/kg/injection, schedule: Q01DX009 (ip), vehicle: Klucel (hydroxypropylcellulose) (HPC)) of the same molecule?
**A.** 105 % of control

**Q.** What does the source list for `CC1(C)C2CCC1(C)C1(C2)OC(CCl)CS1` (centres undefined)?
**A.** T/C [9]: 90 % of control; T/C (dose: 100.0 mg/kg/injection, schedule: Q01DX009 (ip), vehicle: saline with Tween-80): 94 % of control; T/C (dose: 200.0 mg/kg/injection, schedule: Q01DX009 (ip), vehicle: saline with Tween-80): 108 % of control

**Q.** `OC1(C2CCCCC2)C2CCCC1CCC2` (centres undefined) was tested. Which T/C [4] did it give?
**A.** 104 % of control

**Q.** What about the T/C [5] of the same molecule?
**A.** 95 % of control

**Q.** And the T/C [9]?
**A.** 109 % of control

**Q.** And the T/C (dose: 100.0 mg/kg/injection, schedule: Q04DX003 (ip), vehicle: other)?
**A.** 104 % of control

**Q.** What about the T/C (dose: 200.0 mg/kg/injection, schedule: Q04DX003 (ip), vehicle: other) of the same molecule?
**A.** 109 % of control

**Q.** And the T/C (dose: 400.0 mg/kg/injection, schedule: Q04DX003 (ip), vehicle: other)?
**A.** 104 % of control

**Q.** Which results are given for `C=CCN(CC=C)c1ccc(N(CC)CC)cc1`?
**A.** T/C [10]: 87 % of control; T/C [11]: 95 % of control; T/C [12]: 100 % of control

**Q.** What does the source list for `C=CC1CCCCC1C=C` (centres undefined)?
**A.** T/C [2]: 107 % of control; T/C [3]: 88 % of control

**Q.** With `N=c1ccn2c(n1)OC1C(O)C(CO)OC12` (centres undefined) as the molecule, how does the T/C (dose: 39.0 mg/kg/injection, schedule: Q01DX008 (ip), vehicle: water) read?
**A.** 173 % of control

**Q.** What about the T/C (dose: 65.0 mg/kg/injection, schedule: Q01DX008 (ip), vehicle: water) of the same molecule?
**A.** 99 % of control

**Q.** And the T/C (dose: 108.0 mg/kg/injection, schedule: Q01DX008 (ip), vehicle: water)?
**A.** 224 % of control

**Q.** What about the T/C (dose: 180.0 mg/kg/injection, schedule: Q01DX008 (ip), vehicle: water) of the same molecule?
**A.** 207 % of control

**Q.** And the T/C (dose: 300.0 mg/kg/injection, schedule: Q01DX008 (ip), vehicle: water)?
**A.** 213 % of control

**Q.** What about the T/C (dose: 500.0 mg/kg/injection, schedule: Q01DX008 (ip), vehicle: water) of the same molecule?
**A.** 225 % of control

**Q.** With `CC(=O)Oc1ccc(OC(C)=O)c2c1CC1(C)OC1(C)C2` (centres undefined) as the molecule, how does the T/C (dose: 1.56 mg/kg/injection, schedule: Q01DX009 (ip), vehicle: saline) read?
**A.** 96 % of control

**Q.** What about the T/C (dose: 3.12 mg/kg/injection, schedule: Q01DX009 (ip), vehicle: saline) of the same molecule?
**A.** 96 % of control

**Q.** And the T/C (dose: 6.25 mg/kg/injection, schedule: Q01DX009 (ip), vehicle: saline)?
**A.** 99 % of control

**Q.** What about the T/C [1] of the same molecule?
**A.** 88 % of control

**Q.** What about the T/C [2] of the same molecule?
**A.** 88 % of control

**Q.** What about the T/C [6] of the same molecule?
**A.** 96 % of control

**Q.** And the T/C [3]?
**A.** 97 % of control and 109 % of control

**Q.** What about the T/C [7] of the same molecule?
**A.** 107 % of control

**Q.** And the T/C [13]?
**A.** 96 % of control

**Q.** And the T/C [8]?
**A.** 87 % of control

**Q.** What about the T/C [14] of the same molecule?
**A.** 94 % of control

**Q.** And the T/C (dose: 200.0 mg/kg/injection, schedule: Q04DX003 (ip), vehicle: saline)?
**A.** 103 % of control

**Q.** And the T/C [15]?
**A.** 90 % of control

**Q.** And the T/C (dose: 400.0 mg/kg/injection, schedule: Q04DX003 (ip), vehicle: saline)?
**A.** 100 % of control

**Q.** What does the source list for `C/C=C(\C)C(=O)OC1CC[N+]2([O-])CCC(COC(=O)/C(=C/C)CO)C12` (centres undefined)?
**A.** T/C (dose: 30.0 mg/kg/injection, schedule: Q01DX010 (ip), vehicle: saline): 111 % of control; T/C (dose: 60.0 mg/kg/injection, schedule: Q01DX010 (ip), vehicle: saline): 111 % of control; T/C (dose: 100.0 mg/kg/injection, schedule: Q01DX010 (ip), vehicle: saline): 116 % of control

**Q.** Which T/C [10] does the source give for `CC(=O)C(=O)C(C)=O` here?
**A.** 105 % of control

**Q.** And the T/C [11]?
**A.** 100 % of control

**Q.** And the T/C [12]?
**A.** 105 % of control

**Q.** Which results are given for `CCOC(=O)CNC(=O)NC12CC3CC(CC(C3)C1)C2`?
**A.** T/C [13]: 119 % of control; T/C [14]: 104 % of control; T/C [15]: 102 % of control

**Q.** What does the source list for `CCCCC(CC)COC(=O)CCC(CCC(=O)OCC(CC)CCCC)C(=O)OCC(CC)CCCC` (centres undefined)?
**A.** T/C (dose: 100.0 mg/kg/injection, schedule: Q04DX003 (ip), vehicle: saline with Tween-80): 90 % of control; T/C (dose: 200.0 mg/kg/injection, schedule: Q04DX003 (ip), vehicle: saline with Tween-80): 118 % of control; T/C (dose: 400.0 mg/kg/injection, schedule: Q04DX003 (ip), vehicle: saline with Tween-80): 95 % of control
